The values that follow come from PubChem BioAssay AID1259407 (Chemical Carcinogenesis Research Information System (CCRIS), 2018).

Each structure is given as a SMILES string. Activity calls are given as the source filed them. No rule for the calls is given here.

This series concerns CCRIS mutagenicity, Ames/micronucleus/aberration tests. In words: CCRIS mutagenicity studies.
[1] abbreviates: Test System: AMES SALMONELLA TYPHIMURIUM, Strain/Indicator: TA98, Metabolic Activation: NONE, Method: STANDARD PLATE.
Setting [2] is: Test System: AMES SALMONELLA TYPHIMURIUM, Strain/Indicator: TA98, Metabolic Activation: RAT, LIVER, S-9, AROCLOR 1254, Method: STANDARD PLATE.
Setting [3] is: Test System: AMES SALMONELLA TYPHIMURIUM, Strain/Indicator: TA100, Metabolic Activation: RAT, LIVER, S-9, AROCLOR 1254, Method: STANDARD PLATE.

Regarding `O=c1oc2cc(O)ccc2c2oc3cc(O)ccc3c12`, the mutagenic call is “active; positive (structural changes)” (End Point: IN VITRO CHROMOSOMAL ABERRATIONS, Test System: HUMAN PERIPHERAL LYMPHOCYTES, Metabolic Activation: NONE); “inactive; negative” (Test System: AMES SALMONELLA TYPHIMURIUM, Strain/Indicator: TA98, Metabolic Activation: HAMSTER, LIVER, S-9, AROCLOR 1254, Method: STANDARD PLATE); “inactive; negative” under setting [1]; “inactive; negative” under setting [2]; “inactive; negative” (Test System: AMES SALMONELLA TYPHIMURIUM, Strain/Indicator: TA100, Metabolic Activation: HAMSTER, LIVER, S-9, AROCLOR 1254, Method: STANDARD PLATE); “inactive; negative” (Test System: AMES SALMONELLA TYPHIMURIUM, Strain/Indicator: TA100, Metabolic Activation: NONE, Method: STANDARD PLATE). The mutagenic call under setting [3] was “inactive; negative”; the mutagenic call (Test System: AMES SALMONELLA TYPHIMURIUM, Strain/Indicator: TA1535, Metabolic Activation: HAMSTER, LIVER, S-9, AROCLOR 1254, Method: STANDARD PLATE) is “inactive; negative”; the mutagenic call (Test System: AMES SALMONELLA TYPHIMURIUM, Strain/Indicator: TA1535, Metabolic Activation: NONE, Method: STANDARD PLATE) is “inactive; negative”; the mutagenic call (Test System: AMES SALMONELLA TYPHIMURIUM, Strain/Indicator: TA1535, Metabolic Activation: RAT, LIVER, S-9, AROCLOR 1254, Method: STANDARD PLATE) was “inactive; negative”; the mutagenic call (Test System: AMES SALMONELLA TYPHIMURIUM, Strain/Indicator: TA1537, Metabolic Activation: HAMSTER, LIVER, S-9, AROCLOR 1254, Method: STANDARD PLATE) was “inactive; negative”; the mutagenic call (Test System: AMES SALMONELLA TYPHIMURIUM, Strain/Indicator: TA1537, Metabolic Activation: NONE, Method: STANDARD PLATE) is “inactive; negative”. For the same compound, the mutagenic call is “inactive; negative” (Test System: AMES SALMONELLA TYPHIMURIUM, Strain/Indicator: TA1537, Metabolic Activation: RAT, LIVER, S-9, AROCLOR 1254, Method: STANDARD PLATE); “inactive; negative” (Test System: AMES SALMONELLA TYPHIMURIUM, Strain/Indicator: TA1538, Metabolic Activation: HAMSTER, LIVER, S-9, AROCLOR 1254, Method: STANDARD PLATE); “inactive; negative” (Test System: AMES SALMONELLA TYPHIMURIUM, Strain/Indicator: TA1538, Metabolic Activation: NONE, Method: STANDARD PLATE); “inactive; negative” (Test System: AMES SALMONELLA TYPHIMURIUM, Strain/Indicator: TA1538, Metabolic Activation: RAT, LIVER, S-9, AROCLOR 1254, Method: STANDARD PLATE); “inactive; negative” (Test System: Ames Salmonella typhimurium, Strain/Indicator: TA102, Metabolic Activation: None, Method: Preincubation); “inactive; negative” (Test System: Ames Salmonella typhimurium, Strain/Indicator: TA102, Metabolic Activation: Rat, Liver, S-9, Aroclor 1254 in 0.154 M KCl, Method: Preincubation). The mutagenic call is “active; positive” (Test System: CHINESE HAMSTER LUNG CELLS, Strain/Indicator: V-79 (HPRT)/6-THIOGUANINE, Metabolic Activation: NONE); “active; positive” (Test System: HUMAN LYMPHOBLASTOID CELLS, Strain/Indicator: AHH-1 CELLS(TK+/TK-), Metabolic Activation: NONE, Method: SUSPENSION/PLATE); “active; positive” (Test System: SYRIAN HAMSTER EMBRYO CELLS, Strain/Indicator: HPRT/6-THIOGUANINE, Metabolic Activation: NONE, Method: PLATE).
Take `O.O.O.O.O.O.O.[Cl-].[Cl-].[Cl-].[Fe+3]`: the mutagenic call by setting is: (Test System: AMES SALMONELLA TYPHIMURIUM, Strain/Indicator: TA102, Metabolic Activation: NONE, Method: STANDARD PLATE) “inactive; negative”; (Test System: Mouse lymphoma, Strain/Indicator: L5178Y (tk+/tk-), Metabolic Activation: None, Method: Suspension/plate) “inactive; negative”; (Test System: Mouse lymphoma, Strain/Indicator: L5178Y (tk+/tk-), Metabolic Activation: Rat, Liver, S-9, Aroclor 1254, Method: Suspension/plate) “inactive; inconclusive (previous evaluation: negative)”.
As to `CC(=O)c1c(C)c([N+](=O)[O-])c(C(C)(C)C)c([N+](=O)[O-])c1C`, the mutagenic call was “inactive; negative” (Test System: AMES SALMONELLA TYPHIMURIUM, Strain/Indicator: TA97, Metabolic Activation: HAMSTER, LIVER, S-9, AROCLOR 1254 (10 OR 30%), Method: PREINCUBATION); “inactive; negative” (Test System: AMES SALMONELLA TYPHIMURIUM, Strain/Indicator: TA97, Metabolic Activation: NONE, Method: PREINCUBATION); “inactive; negative” (Test System: AMES SALMONELLA TYPHIMURIUM, Strain/Indicator: TA97, Metabolic Activation: RAT, LIVER, S-9, AROCLOR 1254 (10 OR 30%), Method: PREINCUBATION); “inactive; negative” (Test System: AMES SALMONELLA TYPHIMURIUM, Strain/Indicator: TA98, Metabolic Activation: HAMSTER, LIVER, S-9, AROCLOR 1254 (10 OR 30%), Method: PREINCUBATION); “inactive; negative” (Test System: AMES SALMONELLA TYPHIMURIUM, Strain/Indicator: TA98, Metabolic Activation: NONE, Method: PREINCUBATION); “inactive; negative” (Test System: AMES SALMONELLA TYPHIMURIUM, Strain/Indicator: TA98, Metabolic Activation: RAT, LIVER, S-9, AROCLOR 1254 (10 OR 30%), Method: PREINCUBATION). In addition, the mutagenic call is, setting by setting: (Test System: AMES SALMONELLA TYPHIMURIUM, Strain/Indicator: TA98, Metabolic Activation: RAT, LIVER, S-9, AROCLOR 1254, Method: PREINCUBATION) “inactive; negative”; under setting [2], “inactive; negative”; (Test System: AMES SALMONELLA TYPHIMURIUM, Strain/Indicator: TA100, Metabolic Activation: HAMSTER, LIVER, S-9, AROCLOR 1254 (10 OR 30%), Method: PREINCUBATION) “inactive; negative”; (Test System: AMES SALMONELLA TYPHIMURIUM, Strain/Indicator: TA100, Metabolic Activation: NONE, Method: PREINCUBATION) “inactive; negative”; (Test System: AMES SALMONELLA TYPHIMURIUM, Strain/Indicator: TA100, Metabolic Activation: RAT, LIVER, S-9, AROCLOR 1254 (10 OR 30%), Method: PREINCUBATION) “inactive; negative”; (Test System: AMES SALMONELLA TYPHIMURIUM, Strain/Indicator: TA100, Metabolic Activation: RAT, LIVER, S-9, AROCLOR 1254, Method: PREINCUBATION) “inactive; negative”. In addition, the mutagenic call is “inactive; negative” under setting [3]; “inactive; negative” (Test System: AMES SALMONELLA TYPHIMURIUM, Strain/Indicator: TA1535, Metabolic Activation: HAMSTER, LIVER, S-9, AROCLOR 1254 (10 OR 30%), Method: PREINCUBATION); “inactive; negative” (Test System: AMES SALMONELLA TYPHIMURIUM, Strain/Indicator: TA1535, Metabolic Activation: NONE, Method: PREINCUBATION); “inactive; negative” (Test System: AMES SALMONELLA TYPHIMURIUM, Strain/Indicator: TA1535, Metabolic Activation: RAT, LIVER, S-9, AROCLOR 1254 (10 OR 30%), Method: PREINCUBATION); “inactive; negative” (Test System: MOUSE LYMPHOMA, Strain/Indicator: L5178Y (TK+/TK-), Metabolic Activation: NONE, Method: SUSPENSION/PLATE); “inactive; negative” (Test System: MOUSE LYMPHOMA, Strain/Indicator: L5178Y (TK+/TK-), Metabolic Activation: RAT, LIVER, S-9, AROCLOR 1242 AND AROCLOR 1254 (2:1), Method: SUSPENSION/PLATE). Further, the mutagenic call (Test System: UDS RAT PRIMARY HEPATOCYTES, Strain/Indicator: THY INCORP, Metabolic Activation: NONE) is “inactive; negative”.
As for `Nc1ccc(CC(=O)O)cc1`, the mutagenic call runs as follows: under setting [1], “inactive; negative”; (Test System: AMES SALMONELLA TYPHIMURIUM, Strain/Indicator: TA98, Metabolic Activation: RAT, LIVER, S-9, Method: STANDARD PLATE) “active; positive”.
